This is an account of results in patent US20250333394A1, “Tiparp Inhibitor Compounds” (AbbVie Inc., priority 2024, published 2025).

What is called IC50 is the concentration that inhibits the measured activity by half. High values mean weaker potency, low ones greater potency.

One assay deals with TIPARP GST-(TEV) (Homo sapiens (Human), UniProt Q7Z3E1). Description: TR-FRET binding assay, TIPARP. The procedure, abridged:
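N-terminal GST-TEV-tagged human TIPARP with protein/probe mix in 50 mM Tris-HCl pH 8.0, 5 mM MgCl2, 5 µM ZnCl2, 1 mM DTT, 0.15% BSA, 0.01% Triton X-100, plus 1 nM Tb-anti-GST antibody. Compounds at 30 µM to 0.5 nM final, 3-fold steps. TR-FRET ratio read after 2 h at ambient temperature.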

The next assay concerns NCI-H1373 tumors. Description: NCI-H1373 xenograft tumor model efficacy. Type of assay: in vivo, mouse. The settings on record: PO BID for 14 days, SCID-beige mice. How it is done: The human xenograft line NCI-H1373 was obtained from ATCC (American Type Culture Collection, Manassas, Virginia, USA). A suspension of 5×10^6 cells in culture medium mixed with Matrigel® (Corning Life Sciences, Lowell, MA, USA; 1:1, volume:volume) was injected subcutaneously in the right hind flank of female SCID-beige mice to generate tumor formation. Treatment started when the size of the flank tumors was approximately 120 mm^3. The TIPARP inhibition activity of Example 1 was evaluated by dosing five separate treatment groups with vehicle and four different doses of Example 1, administered twice a day (BID) for 14 days. Each administration consisted of a 0.2 mL PO dose in a vehicle formulation (10% ethanol, 30% PEG300, and 60% PHOSAL® 50).

The subject of the next assay is DLD-1 BRCA2 (−/−) cells. In words: CellTiter-Glo DLD-1 BRCA2 (−/−) cell assay for PARP1/2 inhibition. It is filed as cell-based. The settings on record: Homo sapiens, 144 h, 6 days, read-out: DLD-1 BRCA2 (−/−) CTG EC50. The procedure, abridged:
(§1)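 DLD-1 parent (500 cells/well) and DLD-1 BRCA2 (−/−) (1200 cells/well) cells in RPMI 1640 with 10% FBS exposed to compounds at 30 μM to 0.5 nM (3-fold dilutions) for 6 days at 37° C. Viability read by CellTiter-Glo luminescence on day 7.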
(In general: Cellular ATP, detected with luciferase, serves as a proxy for viable cell number.)

The subject of another assay is DLD-1 parent cells. In words: CellTiter-Glo DLD-1 parent cell assay. It is filed as cell-based. The settings on record: Homo sapiens, 144 h, 6 days, read-out: DLD-1 CTG EC50. The method, boiled down: as §1

Some results are limits rather than exact numbers.

Chain of TIPARP GST-(TEV) (Q7Z3E1 441-657): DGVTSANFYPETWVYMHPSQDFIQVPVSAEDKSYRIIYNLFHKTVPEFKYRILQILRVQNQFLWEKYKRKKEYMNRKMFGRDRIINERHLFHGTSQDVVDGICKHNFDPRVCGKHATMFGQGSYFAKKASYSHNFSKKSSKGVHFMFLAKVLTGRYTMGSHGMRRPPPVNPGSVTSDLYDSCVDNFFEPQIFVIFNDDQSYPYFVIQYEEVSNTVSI

In the case of `C[C@@H]1CN(c2ncc(C(F)(F)F)cn2)CCN1C(=O)[C@H]1C[C@@H](c2c[nH]c(=O)c(C(F)(F)F)c2)C1` [Example 1, 5-[(1S,3s)-3-{(2R)-2-methyl-4-[5-(trifluoromethyl)pyrimidin-2-yl]piperazine-1-carbonyl}cyclobutyl]-3-(trifluoromethyl)pyridin-2(1H)-one], the IC50 on TIPARP GST-(TEV) (TR-FRET, Probe 1, 2 hours incubation) turned out to be 0.0024 µM. At TIPARP GST-(TEV) (ratio of PARP1 GST IC50 to TIPARP GST-(TEV) IC50), the “PARP1/TIPARP IC50 Ratio” value amounted to 1140. Also, the TGIMax in the assay with NCI-H1373 tumors (Dose A) was determined as 26%; in the assay with NCI-H1373 tumors (Dose B), 46%; in the assay on NCI-H1373 tumors (Dose C), 73%; with NCI-H1373 tumors (Dose D) it was 92%. Besides, the EC50 in the assay on DLD-1 BRCA2 (−/−) cells is 18.5 µM; in the assay with DLD-1 parent cells, greater than 30 µM.
